Experimental data as given in patent publication US20250275975A1, “Methods of Treating Neuropathies” (Athira Pharma, Inc., priority 2023, published 2025).

Key:
[1] = test system: STZ DNP rats; experiment: Thermal hyperalgesia rescue assay (hot plate paw withdrawal latency), Example B1; format: in vivo, Sprague Dawley rats; design: key to Efficacy: rescue of thermal hyperalgesia behavior as measured by paw withdrawal latency: NS indicates treatment did not significantly affect paw withdrawal latency vs disease control.; + indicates p < 0.05 vs disease control.; ++ indicates p < 0.01 vs disease control.; +++ indicates p < 0.001 vs disease control; conditions: for Efficacy: rescue of thermal hyperalgesia behavior as measured by paw withdrawal latency: study day 28 after 14 days of treatment, hot plate 52.5° C., p vs disease control; for rescue of thermal allodynia behavior as measured by paw withdrawal latency: STZ DNP rats
Procedure: (§1) A series of studies were performed to determine the ability of HGF/MET positive modulator compounds to reduce the mechanical allodynia pain behaviors in hyperglycemic rats. A single dose of STZ (55 mg/kg via intravenous (IV)) was administered to induce a Type I diabetic hyperglycemia in male Sprague Dawley rats. Hyperglycemia was confirmed 4 days after STZ administration, with blood glucose levels above 200 mg/dL considered successful model induction. 14 days after disease induction, test compound treatment was initiated and continued as daily compound administration over the remaining course of the study. Route and dose for each compound were determined by pharmacokinetic and distribution modelling. Control groups included animals with no diabetic induction (Sham control), animals with diabetes but treated only with formulation vehicle (DNP (diabetic peripheral neuropathy) control), and disease animals treated with pregabalin (30 mg/kg via PO), which is known to reduce neuropathic pain behaviors.
(§2) Changes to neuropathic pain behaviors were assessed after 14 days of compound treatment on study day 28. Mechanical allodynia was tested by placing each animal on an elevated wire grid and stimulating the plantar surface of the right rear paw with a series of filaments corresponding to increasing orders of force, reaching a maximum force of 60 grams (Aesthesio manual Von Frey filaments). The force of the filament that causes paw withdrawal was considered the paw withdrawal threshold in grams. Pain sensitivity in response to thermal hyperalgesia was determined by using hot plate method and represented as paw withdrawal latency (PWL). Rats were placed on the hot plate (52.5° C.), and the time taken to show the nocifensive behavior (either licking or jumping) of any of their paws was recorded. Statistical comparison of treatment groups to DNP control groups was performed by one-way ANOVA followed by Dunnett's multiple comparisons test.

[2] = test system: STZ DNP rats; experiment: Mechanical allodynia rescue assay (Von Frey paw withdrawal threshold), Example B1; format: in vivo, Sprague Dawley rats; design: key to Efficacy: rescue of mechanical allodynia behavior as measured by paw withdrawal threshold: NS indicates treatment did not significantly affect paw withdrawal threshold vs disease control.; + indicates p < 0.05 vs disease control.; ++ indicates p < 0.01 vs disease control.; +++ indicates p < 0.001 vs disease control; conditions: for Efficacy: rescue of mechanical allodynia behavior as measured by paw withdrawal threshold: study day 28 after 14 days of treatment, p vs disease control; for rescue of the mechanical allodynia behavior as measured by paw withdrawal threshold: STZ DNP rats
From the text: Hyperglycemic rats consistently develop neuropathic pain-associated behaviors including mechanical allodynia. Allodynia refers to a type of neuropathic pain characterized by increased sensitivity to stimuli that are not normally painful. Mechanical allodynia is quantified in rats by determination of the force required to induce a withdrawal of the paw and is negatively associated with allodynia such that, the lower the force required to induce paw withdrawal, the greater the pain behavior.
as §1, §2

SMILES | Efficacy: rescue of thermal hyperalgesia behavior as measured by paw withdrawal latency ([1]; 0.00625 mg/kg PO daily) | Efficacy: rescue of thermal hyperalgesia behavior as measured by paw withdrawal latency ([1]; 0.025 mg/kg PO daily) | Efficacy: rescue of thermal hyperalgesia behavior as measured by paw withdrawal latency ([1]; 0.1 mg/kg PO daily) | Efficacy: rescue of thermal hyperalgesia behavior as measured by paw withdrawal latency ([1]; 1 mg/kg PO daily) | rescue of thermal allodynia behavior as measured by paw withdrawal latency [1] | Efficacy: rescue of mechanical allodynia behavior as measured by paw withdrawal threshold ([2]; 0.00625 mg/kg PO daily) | Efficacy: rescue of mechanical allodynia behavior as measured by paw withdrawal threshold ([2]; 0.025 mg/kg PO daily) | Efficacy: rescue of mechanical allodynia behavior as measured by paw withdrawal threshold ([2]; 0.1 mg/kg PO daily) | Efficacy: rescue of mechanical allodynia behavior as measured by paw withdrawal threshold ([2]; 1 mg/kg PO daily) | rescue of the mechanical allodynia behavior as measured by paw withdrawal threshold [2] | Efficacy: rescue of thermal hyperalgesia behavior as measured by paw withdrawal latency ([1]; 0.156 mg/kg PO daily) | Efficacy: rescue of thermal hyperalgesia behavior as measured by paw withdrawal latency ([1]; 0.625 mg/kg PO daily) | Efficacy: rescue of thermal hyperalgesia behavior as measured by paw withdrawal latency ([1]; 2.5 mg/kg PO daily) | Efficacy: rescue of thermal hyperalgesia behavior as measured by paw withdrawal latency ([1]; 10 mg/kg PO daily) | Efficacy: rescue of mechanical allodynia behavior as measured by paw withdrawal threshold ([2]; 0.156 mg/kg PO daily) | Efficacy: rescue of mechanical allodynia behavior as measured by paw withdrawal threshold ([2]; 0.625 mg/kg PO daily) | Efficacy: rescue of mechanical allodynia behavior as measured by paw withdrawal threshold ([2]; 2.5 mg/kg PO daily) | Efficacy: rescue of mechanical allodynia behavior as measured by paw withdrawal threshold ([2]; 10 mg/kg PO daily)
CCC(C)CN1CC2N(C(=O)c3ccc(OC(F)F)cc3)CCC(=O)N2[C@@H](C)C1=O (some centres unmarked) [Compound 2a] | + (+ indicates p < 0.05 vs disease control.) | NS | ++ (++ indicates p < 0.01 vs disease control.) | NS | significant rescue | + (+ indicates p < 0.05 vs disease control.) | ++ (++ indicates p < 0.01 vs disease control.) | +++ (+++ indicates p < 0.001 vs disease control.) | +++ (+++ indicates p < 0.001 vs disease control.) | significant rescue |  |  |  |  |  |  |  | 
CCC(C)CN1CC2N(Cc3ccc(OC(F)F)cc3)CCC(=O)N2[C@@H](C)C1=O (some centres unmarked) [Compound 6a] |  |  |  |  | significant rescue |  |  |  |  | significant rescue | NS | NS | ++ (++ indicates p < 0.01 vs disease control.) | +++ (+++ indicates p < 0.001 vs disease control.) | NS | + (+ indicates p < 0.05 vs disease control.) | +++ (+++ indicates p < 0.001 vs disease control.) | +++ (+++ indicates p < 0.001 vs disease control.)
